Measured values taken from patent US20240226079A1, “TOPICAL ANAESTHETIC COMPOSITION HAVING IMPROVED VASOCONSTRICTOR STABILITY” (Animal Ethics Pty Ltd, priority 2021, published 2024).
Where two headings read alike, the source gives them in different places.

Assay: Forced degradation studies of the drug substances
Source text: Table 4 summarises information on the relative chemical stability of the drug substances, obtained in forced degradation studies.

Molecule | % Degradation | % Degradation (Acid, 8 Weeks) | % Degradation (Base, 8 Weeks) | % Degradation (Heat, 8 Weeks) | % Degradation (Light, 51 × 10^6 lux hrs) | % Degradation (Oxidation 1, 8 Weeks) | % Degradation (Oxidation 2, 8 Weeks) | % Degradation (Reduction, 8 Weeks)
CCCCN1CCCCC1C(=O)Nc1c(C)cccc1C (stereo not shown) [Bupivacaine] | 11.2% | – | – | – | – | – | – | –
CNCC(O)c1ccc(O)c(O)c1 (stereo not shown) [Adrenaline] | 51.6% | – | – | – | – | – | – | –
Cetrimide | – | 0.4% | 0.9% | 0.5% | 8.9% | −0.2% | 1.0% | 8.4%
CCN(CC)CC(=O)Nc1c(C)cccc1C [Lignocaine] | – | −0.3% | 1.1% | 1.1% | 9.9% | −0.2% | 3.3% | −0.3%
